Experimental data reported in US5814612A, “Retinol derivatives and uses thereof” (priority 1992, dated 1998).
“Also recorded” adds a separate entry of the source. Read-outs that look alike come from different tables or passages of the source.

Key:
thymocytes = test: Proliferation of anti-CD3 activated thymocytes in serum-free ITLB medium; assay type: cell-based, BALB/c mouse; details: for effectiveness relative to retinol: anti-CD3, 14HRR at 12 hour intervals; for proliferative response of anti-CD3e activated thymocytes / growth kinetics over four days: retinol 3×10^-6 M, 14HRR 6×10^-7 M, human serum 3%; for growth kinetics over four days: 10^5 cells/well
Experimental: FIG. 14A: Purified BALB/c thymocytes were activated with immobilized anti-CD3e antibody and cultivated for four days in ITLB medium with or without retinol (3×10^-6 M), 14HRR (6×10^-7 M) (fresh 14HRR was added every 12 hours), human serum (3%) or FCS (10%) at the cellular densities shown. Proliferation was assayed by tritiated thymidine incorporation into cellular DNA.
FIG. 14B: BALB/c thymocytes (10^6 /ml) were added to microtiter plates coated with titrated amounts of anti-CD3e antibody with […] retinol or without, as indicated. Proliferation was measured in hexaduplicate wells on day 3 by ^3 H thymidine incorporation assay.
Purified thymocytes (5×10^5 cells/well) were stimulated by TCR crosslinking with immobilized anti-CD3e antibody (FIG. 15A) or 0.4 μg/ml Con A (FIG. 15B) in serum-free ITLB medium. The indicated amounts of retinoids were added either once at the beginning of the experiment (marked as "1×") or every 12 hours thereafter (marked as "6×"). DNA synthesis was measured after 72 hours by tritiated thymidine uptake as described.
Purified thymocytes (10^5 cells/well) were activated with anti-CD3 antibody in ITLB medium with or without retinol (3×10^-6 M), 14HRR (6×10^-7, added every 12 hours or human serum (3%)). DNA synthesis was measured daily by a 4 hour pulse of tritiated thymidine.
Thymocytes (5×10^4 /well) were activated by immobilized anti-CD3 mAb in medium ITLB. Retinol (2×10^-6 M) was added at initiation of culture, or delayed by 12 hours and 24 hours, respectively, or omitted altogether. ^3 H thymidine pulses of 4 hours were used to measure DNA synthesis of hexaduplicate wells.
Thymuses of 3 to 6-week-old BALB/c mice were teased in serum-free RPMI medium supplemented with 1% BSA, 10^-6 M linoleic acid and antibiotics. Depletion of accessory cells was achieved by two cycles of complement-dependent lysis with a mixture of anti-IA^d (5 μg/ml) and anti-IE^d (1:500 diluted ascites fluid). Briefly, cells were incubated on ice for 30 minutes with Ia antibodies, spun down, resuspended in 1:40 diluted rabbit complement, and incubated at 37° C. for 45 minutes. Incubations and two subsequent washes were carried out with RPMI medium containing 1% BSA. Cell viability was evaluated by trypan blue dye exclusion. To determine the extent of depletion of accessory cells, samples were stained with FITC-conjugated anti-Fc receptor antibody and analyzed by flow cytometry on a FACScan instrument (Becton Dickinson).
Cells were cultured in serum-free medium, referred to as ITLB, containing RPMI 1640 supplemented with 8×10^-7 M insulin (5 μg/ml), 7×10^-8 M transferrin (5 μg/ml), 2×10^-6 M linoleic acid, 2×10^-6 M delipidated BSA (0.12 mg/ml), 2 mM L-glutamine, 1 mM sodium pyruvate and antibiotics. They were seeded into 96-well flat-bottom plates at varying cellular densities in a final volume of 100 μl. In control experiments, cells were cultured in medium containing 10% FCS or 3% human serum and 5×10^-5 M 2ME. T cells and thymocytes were activated with immobilized, purified anti-mAb CD3e or by the addition of Con A in the presence or absence of different concentrations of retinoids. Unless indicated otherwise, retinoids were replenished every 12 hours to maintain a reasonably constant concentration of these labile compounds in culture. […] Cultures were carried out in duplicate. Plates were incubated at 37° C. in a humidified 5% CO2 atmosphere. Cellular proliferation was determined by [^3 H] thymidine uptake (0.5 uCi/well; New England Nuclear, Boston, Mass.) after the incubation times indicated for each experiment with a 4 hour labeling pulse.

T cells = test: T cell activation and proliferation, retinol cofactor requirement; assay type: cell-based, murine
In short: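 Cells were cultured at 37 °C in 5% CO2, with control cultures in medium containing 10% FCS or 3% human serum plus 5×10^-5 M 2ME. Proliferation was read as [3H]thymidine incorporation (0.5 uCi/well, 4 h pulse) after the stated culture times, by scintillation counting. Values are means of duplicate or six replicate cultures.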

5/2 cells = test: Growth-supporting activity on 5/2 cells in serum-free ITLB medium; assay type: cell-based, human
Experimental: The assay was done in 96-well microtiter plates in a final volume of 200 ul/well. The cells were cultured for 72 hours and cell growth determined by [^3 H] thymidine (0.8 μCi/well)labeling for the last 16 hours. Retinoids were added at the indicated concentrations at the initiation of culture and every 24 hours thereafter.
5/2 cells were grown in the absence of retinol in a medium containing the basic RPMI 1640 amino acid/salt mixture, insulin (5 μg/ml), transferrin (5 μg/ml), albumin (0.1%) and linoleic acid (10^-6 M) (ITLB). […] The dose-response curve shown in FIG. 26 indicates an effective concentration of 10^-7 M.

[1] = tested on: lymphoblastoid cells (LCL); details: cited from earlier work
[2] = tested on: activated human thymocytes; details: cited from earlier work

Row | Compound | effectiveness relative to retinol (thymocytes) | dose optimum (thymocytes; provided at 12 hour intervals) [nM] | proliferative response of anti-CD3e activated thymocytes (thymocytes) | growth kinetics over four days (thymocytes) | effect of a single addition at start of culture (thymocytes; single addition) | ability to substitute for retinol in T cell activation (words) (T cells) | restoration of proliferation in absence of retinol (5/2 cells) | support of growth of LCL in serum-free medium [1] | support of growth of activated human thymocytes [2] | ability to substitute for retinol in T cell activation (words) (T cells; listed as retinoic acid) | reduction of sufficient retinol concentration with repeated feeding (thymocytes; replenished twice daily, 3-day culture) | T cell activation in FCS-containing medium (T cells; FCS-containing medium, absence of APC)
1 | CC(C=CC=C(C)C(O)CO)=CC=C1C(C)=CCCC1(C)C (stereo not drawn) [14HRR, 14-hydroxy-4,14-retro-retinol] | as potent as retinol | 500 | vigorous responses were elicited | exponential growth | ineffective; also recorded: does not enable sustained proliferation; also recorded: insufficient to drive T cell proliferation | effectively supports T cell activation in conjunction with a mitogen in lieu of retinol; also recorded: capable of supporting activation and sustaining proliferation of T cells; also recorded: capable of supporting T cell activation and proliferation in the absence of any extraneous source of retinal | restores the capacity to proliferate | – | – | – | – | –
2 | CC1=C(/C=C/C(C)=C/C=C/C(C)=C/C(=O)O)C(C)(C)CCC1 [all-trans retinoic acid] | completely inactive | – | – | – | – | – | – | but not retinoic acid, support the growth of LCL in serum-free medium | The same is true for activated human thymocytes | cannot be satisfied by retinoic acid; also recorded: T lymphocytes neither respond to externally provided retinoic acid | – | –
3 | CC1=C(/C=C/C(C)=C/C=C/C(C)=C/CO)C(C)(C)CCC1 [retinol, all-trans retinol] | – | – | vigorous responses were elicited | exponential growth | – | – | restores the capacity to proliferate | support the growth of LCL in serum-free medium | The same is true for activated human thymocytes | – | five- to ten-fold lower | no activation in the absence of APC, whether or not additional retinol is supplied
